In publication PMC10340592, “Extraction Efficiency and Alpha-Glucosidase Inhibitory Activities of Green Tea Catechins by Different Infusion Methods” (Foods, 2023):

What was measured:
human alpha-glucosidase = molecular target: T1, human alpha-glucosidase (Homo sapiens, UniProt P14410); assay: Inhibitory activity on human alpha-glucosidase in differentiated Caco-2 cells (maltose substrate); type: cell-based; details: mean ± SD
T1 construct: cultured for 14 days to differentiate into small intestinal epithelial-like cells; host or cells: differentiated Caco-2 cells
Protocol: Inhibitory activity on human alpha-glucosidase was measured using differentiated Caco-2 cells as described previously with some modification. Briefly, Caco-2 cells were purchased from Riken Bioresource Research Center (Tsukuba, Japan) and cultured in Minimal Essential Medium (MEM) supplemented with 20% fetal bovine serum, 1% penicillin-streptomycin-glutamine, and 1% non-essential amino acids at 37 °C in an atmosphere of 5% CO2. After passaging, cells (2.0 × 10^4 cells/well) were seeded in 48-well plates and cultured for 14 days to differentiate into small intestinal epithelial-like cells. After 14 days, cells were washed twice with PBS, and 150 µL of sample solution at each concentration as well as 150 µL of 3 mM maltose were added. Each sample and maltose solution were dissolved in PBS. The cells were further incubated for 2 h at 37 °C in an atmosphere of 5% CO2. Then, 100 µL of cell culture supernatant was mixed with 150 µL of color reagent and measured at 505 nm through the spectrometer (Infinite 200 Pro MPlex, Tecan Ltd., Männedorf, Switzerland). The inhibitory activity of the sample was calculated in the same way as in the rat alpha-glucosidase experiment.

rat alpha-glucosidase = assay: Inhibitory activity on rat alpha-glucosidase (rat intestinal acetone powder enzyme, maltose substrate, glucose read-out); type: biochemical; details: mean ± SD
Protocol: Inhibitory activity on rat alpha-glucosidase was measured as described previously with some modification. Rat alpha-glucosidase protein solution was extracted from rat intestinal acetone powders using the ultrasonication method. Briefly, 100 mg of intestinal acetone powders from rats were added to 1.0 mL of a 0.1 M maleic acid/disodium maleate buffer solution at pH 6.0. Then, one cycle of 30 s of ultrasonication and 30 s of break were repeated 6 times in ice-cold water, and the residue was separated by centrifugation (3000 rpm, 30 min, 4 °C). The supernatant was collected as the enzyme solution for experiments. Then, 50 µL of 4% maltose (w/v) and 25 µL of sample solution (GTEs or catechins) were added to a microtube and preincubated at 37 °C for 3 min. After that, 25 µL of the above enzyme solution was added and incubated at 37 °C for 30 min. Consequently, 400 µL of ultrapure water was added and inactivated at 100 °C for 4 min. After 100 µL of the inactivated reaction solution and 150 µL of color reagent (LabAssay™ Glucose kit) were mixed, the glucose contents (mg/dL) were measured at 505 nm through the spectrometer (Infinite 200 Pro MPlex, Tecan Ltd., Männedorf, Switzerland) according to the manufacturer’s instructions with the standard glucose curve. […] The inhibitory activity of each sample was calculated as follows:Inhibitory activity (%) = 100 − {(Cs − Csb)/(Cc − Cb)} × 100 • Cc: Glucose content of the negative control; • Cb: Glucose content of the blank; • Cs: Glucose content of the sample; • Csb: Glucose content of the sample blank.

T1 sequence (P14410 whole entry): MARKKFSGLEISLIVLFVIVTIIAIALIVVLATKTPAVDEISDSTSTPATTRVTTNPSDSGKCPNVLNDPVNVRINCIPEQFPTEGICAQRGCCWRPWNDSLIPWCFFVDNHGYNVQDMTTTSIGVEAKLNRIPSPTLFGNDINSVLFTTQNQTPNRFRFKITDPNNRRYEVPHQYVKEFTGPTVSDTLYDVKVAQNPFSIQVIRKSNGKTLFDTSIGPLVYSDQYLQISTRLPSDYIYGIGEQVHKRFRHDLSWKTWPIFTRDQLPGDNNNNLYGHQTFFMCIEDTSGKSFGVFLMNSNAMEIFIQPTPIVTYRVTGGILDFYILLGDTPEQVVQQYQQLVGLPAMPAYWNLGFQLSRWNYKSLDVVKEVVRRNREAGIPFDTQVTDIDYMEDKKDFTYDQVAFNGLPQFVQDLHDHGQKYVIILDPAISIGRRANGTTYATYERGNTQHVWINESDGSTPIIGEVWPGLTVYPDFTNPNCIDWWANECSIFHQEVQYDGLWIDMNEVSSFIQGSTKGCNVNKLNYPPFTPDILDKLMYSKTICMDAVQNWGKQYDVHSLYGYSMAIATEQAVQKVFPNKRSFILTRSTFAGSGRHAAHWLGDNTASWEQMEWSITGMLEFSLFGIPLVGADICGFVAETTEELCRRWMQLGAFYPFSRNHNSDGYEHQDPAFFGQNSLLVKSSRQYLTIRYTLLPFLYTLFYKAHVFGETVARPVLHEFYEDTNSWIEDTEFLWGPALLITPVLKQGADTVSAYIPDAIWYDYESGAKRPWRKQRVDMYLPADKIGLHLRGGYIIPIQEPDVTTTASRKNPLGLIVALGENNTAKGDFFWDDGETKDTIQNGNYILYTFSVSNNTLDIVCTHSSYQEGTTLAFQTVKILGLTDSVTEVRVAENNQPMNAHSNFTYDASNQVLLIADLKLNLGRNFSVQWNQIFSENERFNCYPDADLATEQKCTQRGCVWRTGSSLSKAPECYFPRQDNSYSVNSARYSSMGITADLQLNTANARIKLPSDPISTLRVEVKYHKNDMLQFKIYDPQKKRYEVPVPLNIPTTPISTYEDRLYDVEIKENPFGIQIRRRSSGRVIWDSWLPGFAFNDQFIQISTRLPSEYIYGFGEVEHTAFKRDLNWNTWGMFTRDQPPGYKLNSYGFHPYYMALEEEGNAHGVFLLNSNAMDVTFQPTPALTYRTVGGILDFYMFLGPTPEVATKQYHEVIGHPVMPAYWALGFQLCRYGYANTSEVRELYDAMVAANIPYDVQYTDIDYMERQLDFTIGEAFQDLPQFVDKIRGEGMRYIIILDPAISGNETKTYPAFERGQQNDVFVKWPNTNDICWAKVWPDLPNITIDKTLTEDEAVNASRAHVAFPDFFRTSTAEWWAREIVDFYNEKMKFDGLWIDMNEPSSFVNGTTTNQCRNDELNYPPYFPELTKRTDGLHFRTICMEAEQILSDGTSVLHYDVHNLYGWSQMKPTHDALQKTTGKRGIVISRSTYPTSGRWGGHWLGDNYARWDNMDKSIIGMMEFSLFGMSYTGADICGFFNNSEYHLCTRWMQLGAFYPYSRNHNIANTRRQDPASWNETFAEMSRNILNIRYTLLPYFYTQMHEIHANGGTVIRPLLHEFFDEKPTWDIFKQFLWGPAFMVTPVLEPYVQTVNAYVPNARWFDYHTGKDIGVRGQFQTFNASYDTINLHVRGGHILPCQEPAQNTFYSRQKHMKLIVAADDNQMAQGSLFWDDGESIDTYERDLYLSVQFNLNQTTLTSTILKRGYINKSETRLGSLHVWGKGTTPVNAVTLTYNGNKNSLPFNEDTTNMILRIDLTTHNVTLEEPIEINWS

| Compound | IC50 (human alpha-glucosidase) [µM] | IC50 (rat alpha-glucosidase) [µM] |
| --- | --- | --- |
| O=C(O[C@@H]1Cc2c(O)cc(O)cc2O[C@@H]1c1cc(O)c(O)c(O)c1)c1cc(O)c(O)c(O)c1 [EGCg, (−)-epigallocatechin-3-gallate] | 90.7 ± 15.8 | 46 ± 3.73 |
| O=C(O[C@@H]1Cc2c(O)cc(O)cc2O[C@@H]1c1ccc(O)c(O)c1)c1cc(O)c(O)c(O)c1 [ECg, (−)-epicatechin-3-gallate] | 78.4 ± 15.2 | 96.9 ± 4.5 |
| O=C(O[C@@H]1Cc2c(O)cc(O)cc2O[C@H]1c1cc(O)c(O)c(O)c1)c1cc(O)c(O)c(O)c1 [GCg, (−)-gallocatechin-3-gallate] | – | 161 ± 2.4 |
| Oc1cc(O)c2c(c1)O[C@H](c1ccc(O)c(O)c1)[C@@H](O)C2 [(+)C, (+)-catechin] | – | 1200 ± 79.6 |
| O=C(O)c1cc(O)c(O)c(O)c1 [GA, gallic acid, reference compound] | – | 1030 ± 64.5 |
| Oc1cc(O)c2c(c1)O[C@H](c1cc(O)c(O)c(O)c1)[C@H](O)C2 [EGC, (−)-epigallocatechin] | 214 ± 3.8 | 713 ± 35.3 |
| Oc1cc(O)c2c(c1)O[C@H](c1ccc(O)c(O)c1)[C@H](O)C2 [EC, (−)-epicatechin] | 134 ± 2.2 | 675 ± 15.7 |
| C[C@H]1O[C@H](O[C@H]2[C@H](O)[C@@H](O)[C@@H](O[C@H]3[C@H](O)[C@@H](O)C(O)O[C@@H]3CO)O[C@@H]2CO)[C@H](O)[C@@H](O)[C@@H]1N[C@H]1C=C(CO)[C@@H](O)[C@H](O)[C@H]1O (some centres unmarked) [acarbose, reference compound] | – | 2.17 ± 0.23 |
| O=C(O[C@@H]1Cc2c(O)cc(O)cc2O[C@H]1c1ccc(O)c(O)c1)c1cc(O)c(O)c(O)c1 [Cg, (−)-catechin-3-gallate] | – | 112 ± 7.8 |
| Oc1cc(O)c2c(c1)O[C@@H](c1cc(O)c(O)c(O)c1)[C@H](O)C2 [GC, (−)-gallocatechin] | – | 798 ± 26.8 |
